Like-named read-outs stand apart in the source and are kept apart here.
What was measured:
[1] = system: Zymoseptoria tritici Tri-R6 strain; assay type: in vivo; settings: for residual efficacy of the contact active ingredients after the washing step: 21 and 28 days after inoculation; for efficacy in the untreated area: contact fungicide as partner of FLUXAPYROXAD
Zymoseptoria tritici = assay: Example 28: in planta bioassay of penetration and translocation of QoI with folpet, wheat leaf segments; assay type: in vivo; settings: example written in the present tense
Venturia inaequalis [2] = assay: Example A: greenhouse control of apple scab, phthalimides with DMI and/or fluopyram; assay type: in vivo; settings: for % control observed on leaves 26 DAYS after the application / % control observed on leaves 19 DAYS after the application: captan or folpet 1200, difenoconazole 75, tebuconazole 150, fluopyram 150 gAI/ha; for Var % (19/26 DAYS): change of % control from 19 to 26 days
Venturia inaequalis [3] = assay: Example 1b: greenhouse control of apple scab, reduced rates of phthalimides and difenoconazole; assay type: in vivo; settings: for % control observed on leaves 26 DAYS after the application / % control observed on leaves 19 DAYS after the application: captan or folpet 900, difenoconazole 35, tebuconazole 150, fluopyram 150 gAI/ha
Venturia inaequalis [4] = assay: Example 2: greenhouse control of apple scab, phthalimides with cyprodinil and/or fluxapyroxad; assay type: in vivo; settings: Table 6; captan or folpet 1200, cyprodinil 300, fluxapyroxad 90 gAI/ha; one spray 1 day before inoculation
Alternaria solani [5] = assay: Example 4: greenhouse control of Alternaria solani in tomato seedlings, phthalimides with DMI and/or fluxapyroxad; assay type: in vivo; settings: Table 9
Alternaria solani [6] = assay: Example 5: greenhouse control of Alternaria solani in tomato, phthalimides with azoxystrobin and/or fluxapyroxad; assay type: in vivo
Phytophthora infestans = assay type: in vivo; settings: tomato
Alternaria solani [7] = assay: Example 6b: greenhouse control of Alternaria solani in potato plants; assay type: in vivo
Venturia inaequalis [8] = assay: Example 13: greenhouse control of apple scab, fluxapyroxad and captan; assay type: in vivo
Plasmopara viticola [9] = assay: Example 8: greenhouse control of Plasmopara viticola in young grape plants, folpet with potassium phosphonate
Plasmopara viticola [10] = assay: Example 7: greenhouse control of Plasmopara viticola in grape plants, folpet with partners; assay type: in vivo
Erysiphe necator = assay: Example 9: greenhouse control of Erysiphe necator in grape plants; assay type: in vivo
Protocol: • An experiment was conducted in controlled conditions under a greenhouse to evaluate the fungicidal activity of the mixture comprising (1) phthalimide fungicide (folpet, captan) and (2) demethylation inhibitor fungicide (difenoconazole) or a quinone outside inhibitors (azoxystrobin, pyraclostrobin), toward Erysiphe necator in grape plants, variety Barbera. In addition, the activity of phthalimide with two fungicides (A); demethylation inhibitor fungicide (difenoconazole) or a quinone outside inhibitors (azoxystrobin, pyraclostrobin and dehydrogenase inhibitor fungicide (fluxapyroxad) was also tested. • The experiment was conducted by applying compositions of fluxapyroxad, difenoconazole (Score® 10 WG), azoxystrobin (Ortiva®), pyraclostrobin (Cabrio® EC) and folpet (Folpan 80 WDG®) alone or together. The compositions were diluted with water. Water amount used was equivalent to 800 L/ha. Application was performed in an automatic spraying cabin equipped with 2 flatfan AI11003VS nozzles. • Treatments: • Folpet 1000 gr (A.I.)/ha • Fluxapyroxad 45 gr (A.I.)/ha • Difenoconazole 37.5 gr (A.I.)/ha • Difenoconazole 37.5 gr (A.I.)/ha+folpet 1000 gr (A.I.)/ha • Azoxystrobin 90 gr (A.I.)/ha • Azoxystrobin 90 gr (A.I.)/ha+folpet 1000 gr (A.I.)/ha • Pyraclostrobin 75 gr (A.I.)/ha • Pyraclostrobin 75 gr (A.I.)/ha+folpet 1000 gr (A.I.)/ha • Fluxapyroxad 45 gr (A.I.)/ha+Difenoconazole 37.5 gr (A.I.)/ha • Fluxapyroxad 45 gr (A.I.)/ha+Difenoconazole 37.5 gr (A.I.)/ha+folpet 1000 gr (A.I.)/ha • Azoxystrobin 90 gr (A.I.)/ha+Fluxapyroxad 45 gr (A.I.)/ha • Azoxystrobin 90 gr (A.I.)/ha+Fluxapyroxad 45 gr (A.I.)/ha+folpet 1000 gr (A.I.)/ha • Azoxystrobin 90 gr (A.I.)/ha+Difenoconazole 37.5 gr (A.I.)/ha • Azoxystrobin 90 gr (A.I.)/ha+Difenoconazole 37.5 gr (A.I.)/ha+folpet 1000 gr (A.I.)/ha • Pyraclostrobin 75 gr (A.I.)/ha+Fluxapyroxad 45 gr (A.I.)/ha • Pyraclostrobin 75 gr (A.I.)/ha+Fluxapyroxad 45 gr (A.I.)/ha+folpet 1000 gr (A.I.)/ha • Pyraclostrobin 75 gr (A.I.)/ha+Difenoconazole 37.5 gr (A.I.)/ha • Pyraclostrobin 75 gr (A.I.)/ha+Difenoconazole 37.5 gr (A.I.)/ha+folpet 1000 gr (A.I.)/ha • To test for fungicidal control of Erysiphe necator, the grape plants were sprayed with each of the above treatments. Each of the above treatments was applied from 4 to 10 times according to the disease development, applications occurring 7-14 days after the previous treatment. The treatments were composed of 4 replicates. • Evaluations were performed for the whole duration of the experiment. At each time the incidence and the severity of Erysiphe necator on plants parts was determined.

Sphaerotheca fuliginea = assay: Example 10: greenhouse control of Sphaerotheca fuliginea on melon plants; assay type: in vivo
Plasmopara viticola [11] = assay: Example 22: greenhouse control of Plasmopara viticola in grape, fluxapyroxad and folpet; assay type: in vivo; settings: variety Barbera
Botrytis cinerea = assay: Example 11: greenhouse control of Botrytis cinerea in strawberry; assay type: in vivo
[12] = 28 days, comparison with FLUXAPYROXAD alone
[13] = Table 2, one spray 1 day before inoculation, severity based
[14] = Table 4, one spray 1 day before inoculation
[15] = captan or folpet 1200, difenoconazole 75, tebuconazole 150, fluxapyroxad 75 gAI/ha, one spray 1 day before inoculation
[16] = Table 10, captan or folpet 900 gAI/ha
[17] = Table 10, captan or folpet 1200, azoxystrobin 120, fluxapyroxad 75 gAI/ha, one spray 1 day before inoculation

Molecule	residual efficacy of the contact active ingredients after the washing step [1]	efficacy in the untreated area [1, 12]	difference from the untreated control after the washing step, treated and untreated areas (Zymoseptoria tritici)	% control observed on leaves 26 DAYS after the application (Venturia inaequalis [2]; [13]) [%]	% control observed on leaves 19 DAYS after the application (Venturia inaequalis [2]; Table 3) [%]	% control observed on leaves 26 DAYS after the application (Venturia inaequalis [2]; Table 3) [%]	Var % (19/26 DAYS) (Venturia inaequalis [2]; Table 3) [%]	% control observed on leaves 26 DAYS after the application (Venturia inaequalis [3]; [14]) [%]	% control observed on leaves 19 DAYS after the application (Venturia inaequalis [3]; Table 5) [%]	% control observed on leaves 26 DAYS after the application (Venturia inaequalis [3]; Table 5) [%]	% control observed on leaves 26 DAYS after the application (Venturia inaequalis [4]) [%]	% control observed on leaves 20 DAYS after the application (Alternaria solani [5]; captan or folpet 900 gAI/ha) [%]	% control observed on leaves 20 DAYS after the application (Alternaria solani [5]; [15]) [%]	% control observed on leaves 20 DAYS after the application (Alternaria solani [6]; [16]) [%]	% control observed on leaves 20 DAYS after the application (Alternaria solani [6]; [17]) [%]	% control observed on leaves 14 DAYS after the application (Alternaria solani [6]; rate 900 gAI/ha, tomato) [%]	% control observed on leaves 20 DAYS after the application (Alternaria solani [6]; rate 900 gAI/ha, tomato) [%]	Var % (14/20 DAYS) (Alternaria solani [6]; rate 900 gAI/ha, tomato) [%]	% control observed on leaves 14 DAYS after the application (Alternaria solani [6]; rate 1200 gAI/ha, tomato) [%]	% control observed on leaves 20 DAYS after the application (Alternaria solani [6]; rate 1200 gAI/ha, tomato) [%]	further results
N#Cc1c(Cl)c(Cl)c(Cl)c(C#N)c1Cl [CHLOROTHALONIL, chlorothalonil]	very low	significantly less than when FLUXAPYROXAD is used alone or with FOLPET	no significant difference from the untreated control																		
O=C1C2CC=CCC2C(=O)N1SC(Cl)(Cl)Cl (stereo not shown) [CAPTAN, captan]				75.9	82.6	75.9	−8.1	77	83.9	77	68.3	51.3	64.3	54.5	65.9	64.9	54.5	−16.0	76	65.9	Var % (19/26 DAYS) (Venturia inaequalis [3]; Table 5, change of % control from 19 to 26 days): −8.2%; Var % (14/20 DAYS) (Alternaria solani [6]; rate 1200 gAI/ha, tomato): −13.3%; % control observed on leaves 14 DAYS after the application (Phytophthora infestans; rate 900 gr (A.I.)/ha): 57.0%; % control observed on leaves 14 DAYS after the application (Phytophthora infestans; rate 1200 gr (A.I.)/ha): 72.4%; % control observed on leaves 21 DAYS after the application (Alternaria solani [7]; rate 900 gr (A.I.)/ha): 54.1%; % control observed on leaves 21 DAYS after the application (Alternaria solani [7]; rate 1200 gr (A.I.)/ha): 64.8%; % control observed on leaves 26 DAYS after the application (Venturia inaequalis [8]; rate 600 gAI/ha): 50.4%; % control observed on leaves 26 DAYS after the application (Venturia inaequalis [8]; rate 900 gAI/ha): 68.1%; % control observed on leaves 26 DAYS after the application (Venturia inaequalis [8]; rate 1200 gAI/ha): 78.5%; % control observed on leaves 26 DAYS after the application (Venturia inaequalis [8]; rate 1500 gAI/ha): 89.1%
potassium phosphonate																					% control observed on leaves 28 DAYS after the application (Plasmopara viticola [9]; rate 1575 gAI/ha): 31.7%; % control observed on leaves 28 DAYS after the application (Plasmopara viticola [9]; rate 1800 gAI/ha): 40.9%
Cn1cc(C(=O)Nc2ccccc2-c2cc(F)c(F)c(F)c2)c(C(F)F)n1 [FLUXAPIROXAD, fluxapyroxad]											75		60.4		66.6						% control observed on leaves 14 DAYS after the application (Alternaria solani [6]; rate 75 gAI/ha, tomato): 75.3%; % control observed on leaves 20 DAYS after the application (Alternaria solani [6]; rate 75 gAI/ha, tomato): 66.6%; Var % (14/20 DAYS) (Alternaria solani [6]; rate 75 gAI/ha, tomato): −11.6%; % control observed on leaves 21 DAYS after the application (Plasmopara viticola [10]; rate 45 gr (A.I.)/ha): 35.1%; % control observed on leaves 21 DAYS after the application (Erysiphe necator; rate 45 gr (A.I.)/ha): 68.7%; % control observed on leaves 21 DAYS after the application (Sphaerotheca fuliginea; rate 75 gr (A.I.)/ha): 72.5%; % control observed on leaves 26 DAYS after the application (Venturia inaequalis [8]; rate 45 gAI/ha): 38.6%; % control observed on leaves 26 DAYS after the application (Venturia inaequalis [8]; rate 55 gAI/ha): 61.7%; % control observed on leaves 26 DAYS after the application (Venturia inaequalis [8]; rate 75 gAI/ha): 78.4%; % control observed on leaves 26 DAYS after the application (Venturia inaequalis [8]; rate 90 gAI/ha): 86.6%; effect against Plasmopara viticola (Plasmopara viticola [11]): limited effect; efficacy in the treated area [1, 12]: better protection than when used with SULPHUR or CHLOROTHALONIL
O=C1c2ccccc2C(=O)N1SC(Cl)(Cl)Cl [FOLPET, folpet]	very low		no significant difference from the untreated control	72.3	80.6	72.3	−10.3	73.4	82.1	73.4	64.9	50.5	63.4	56.7	65.3	67.8	56.7	−16.4	79.7	65.3	Var % (14/20 DAYS) (Alternaria solani [6]; rate 1200 gAI/ha, tomato): 18.1%; % control observed on leaves 14 DAYS after the application (Phytophthora infestans; rate 900 gr (A.I.)/ha): 58.3%; % control observed on leaves 14 DAYS after the application (Phytophthora infestans; rate 1200 gr (A.I.)/ha): 70.3%; % control observed on leaves 21 DAYS after the application (Alternaria solani [7]; rate 900 gr (A.I.)/ha): 53.2%; % control observed on leaves 21 DAYS after the application (Alternaria solani [7]; rate 1200 gr (A.I.)/ha): 63.6%; % control observed on leaves 21 DAYS after the application (Plasmopara viticola [10]; rate 1000 gr (A.I.)/ha): 60.3%; % control observed on leaves 21 DAYS after the application (Erysiphe necator; rate 1000 gr (A.I.)/ha): 35.2%; % control observed on leaves 21 DAYS after the application (Sphaerotheca fuliginea; rate 900 gr (A.I.)/ha): 45.3%; % control observed on leaves 21 DAYS after the application (Sphaerotheca fuliginea; rate 1200 gr (A.I.)/ha): 54.0%; % control observed on leaves 21 DAYS after the application (Botrytis cinerea; rate 900 gr (A.I.)/ha): 33.3%; % control observed on leaves 21 DAYS after the application (Botrytis cinerea; rate 1200 gr (A.I.)/ha): 40.8%; % control observed on leaves 28 DAYS after the application (Plasmopara viticola [9]; rate 1050 gAI/ha): 87.7%; % control observed on leaves 28 DAYS after the application (Plasmopara viticola [9]; rate 1200 gAI/ha): 96.9%
S1SSSSSSS1 [SULPHUR]	very low	significantly less than when FLUXAPYROXAD is used alone or with FOLPET	no significant difference from the untreated control																		
